Laboratory results reported in patent publication US20250320224A1 (DOMAIN THERAPEUTICS, priority 2022, published 2025).
Structures can show the parent of a compound that is named as a salt.

The compounds below were run against T1, human PAR-2 (hPAR-2) receptor (Homo sapiens, UniProt P55085) (assay: In vitro human PAR-2 functional antagonist activity using calcium assays). Settings: hPAR-2 endogenously expressed in HEK-293 cells; stimulated by 2-Furoyl-LIGRLO-NH2 peptide; Fluo4AM intracellular calcium, FLIPR Tetra.
T1 construct: expressed in HEK-293 cells in an endogenous manner; endogenous in cells; host or cells: HEK-293
T1 sequence (P55085 26-397): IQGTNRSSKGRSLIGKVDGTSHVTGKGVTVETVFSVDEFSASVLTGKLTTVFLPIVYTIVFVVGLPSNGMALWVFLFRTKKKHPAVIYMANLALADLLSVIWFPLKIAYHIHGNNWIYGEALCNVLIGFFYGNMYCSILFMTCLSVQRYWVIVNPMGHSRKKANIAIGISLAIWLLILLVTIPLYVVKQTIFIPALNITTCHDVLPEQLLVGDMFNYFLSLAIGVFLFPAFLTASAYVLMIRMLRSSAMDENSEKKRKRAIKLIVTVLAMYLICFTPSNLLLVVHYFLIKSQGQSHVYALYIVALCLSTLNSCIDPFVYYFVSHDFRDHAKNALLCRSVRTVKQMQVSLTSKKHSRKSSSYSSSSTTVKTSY
Format: cell-based
Protocol: Example 283: In Vitro Human PAR-2 Functional Antagonist Activity Using Calcium Assays
Examples of the present invention were tested successively for their agonist and antagonist activities on human PAR-2 (hPAR-2) receptor expressed in HEK-293 cells in an endogenous manner. Compounds exert agonist activity if, by themselves in absence of the 2-Furoyl-LIGRLO-NH2 peptide (selective hPAR-2 agonist), they activate PAR-2; they exert antagonist activity if they decrease the action of the 2-Furoyl-LIGRLO-NH2 peptide on the receptor. The assay used to determine compound activity is based on calcium measurement.
Cell Culture: HEK-293 cells were maintained in Dulbecco's Modified Eagle's Medium supplemented with 10% Foetal Calf Serum, 1% Penicillin/Streptomycin at 37° C./5% CO2. Flasks for tests (F75) are seeded with 6e+06 cells 24 h before the experiment at 37° C./5% CO2.
Calcium assay: Receptor activity was detected by changes in intracellular calcium measured using the fluorescent Ca^2+ sensitive dye, Fluo4AM (Molecular Probes).
The day of the assay, medium was replaced by assay buffer (HBSS 1× (Gibco 14175-053), Hepes 20 mM, MgSO4-7H2O 1 mM, Na2CO3 3.3 mM, CaCl2—2H2O 2.6 mM, 0.5% bovine serum albumin (BSA), Probenecid 2.5 mM, 0.1 mg/mL Pluronic Acid) and complemented with 1 μM Fluo4AM and cells were incubated during 1:30 h at 37° C.
Cells were then detached, resuspended in assay buffer and seeded in 384 wells, transparent-flat bottom black walled plates (2e+04 cells per well). Plates were incubated at +22° C. for 20 min. Compounds stock solutions were prepared in 100% DMSO and dilutions in test buffer were carried out in polypropylene plates with a digital dispenser (D300e, Tecan). Compounds were added to the cells and intracellular Ca^2+ measurements were collected at the same time on FLIPR Tetra® (Molecular Devices) with specific filters (Exc: 470-495 nm/Em: 515-575 nm).
Agonist and antagonist activities of compounds were consecutively evaluated on the same cell plate. Agonist activity was first measured after 10 min incubation with the compound alone. Then, cells were stimulated by an […] of the 2-Furoyl-LIGRLO-NH2 peptide and fluorescence was recorded for an additional 5 min. EC50 of the 2-Furoyl-LIGRLO-NH2 peptide was the concentration giving 80% of the maximal 2-Furoyl-LIGRLO-NH2 response. Agonist activities are evaluated in comparison to basal signals evoked by assay buffer or maximal 2-Furoyl-LIGRLO-NH2 response. […] Antagonist activities are evaluated in comparison to basal signals evoked by assay buffer or EC50 of 2-Furoyl-LIGRLO-NH2 alone.
An IC50 of under 500 nM was found for `CC1(C)CN(c2ccc(Cl)c(F)c2)c2ccc(C(=O)N3CCN(c4nncs4)CC3(C)C)nc21` [Example 67, (1-(4-chloro-3-fluorophenyl)-3,3-dimethyl-2,3-dihydro-1H-pyrrolo[3,2-b]pyridin-5-yl)(2,2-dimethyl-4-(1,3,4-thiadiazol-2-yl)piperazin-1-yl)methanone] in this work. An IC50 of under 500 nM was found for `CC1(C)CN(c2ccc(F)cc2)c2ccc(C(=O)N3CCNC(=O)C3(C)C)nc21` [Example 15, 4-(1-(4-fluorophenyl)-3,3-dimethyl-2,3-dihydro-1H-pyrrolo[3,2-b]pyridine-5-carbonyl)-3,3-dimethylpiperazin-2-one] in this work. An IC50 of over 10000 nM was found for `Cc1cc(N2CCN(C(=O)c3ccc4c(n3)OC(C)(C)CN(c3ccc(Cl)c(F)c3)C4)C(C)(C)C2)nc(C)c1C(=O)O` [Example 87, 6-(4-(4-(4-chloro-3-fluorophenyl)-2,2-dimethyl-2,3,4,5-tetrahydropyrido[3,2-f][1,4]oxazepine-8-carbonyl)-3,3-dimethylpiperazin-1-yl)-2,4-dimethylnicotinic acid] in this work. An IC50 of under 500 nM was found for `CC1(C)C(=O)NCCN1C(=O)c1ccc2c(n1)C1(CCOCC1)CN2c1ccc(Cl)c(F)c1` [Example 55, 4-(1′-(4-chloro-3-fluorophenyl)-1′,2,2′,3,5,6-hexahydrospiro[pyran-4,3′-pyrrolo[3,2-b]pyridine]-5′-carbonyl)-3,3-dimethylpiperazin-2-one] in this work. An IC50 of under 500 nM was found for `Cc1cc(N2CCN(C(=O)c3cnc4c(n3)C3(CN4c4ccc(Cl)c(F)c4)CC(C)(C)C3)C(C)(C)C2)nc(C)c1C(=O)O` [Example 247, 6-(4-(5′-(4-chloro-3-fluorophenyl)-3,3-dimethyl-5′,6′-dihydrospiro[cyclobutane-1,7′-pyrrolo[2,3-b]pyrazine]-2′-carbonyl)-3,3-dimethylpiperazin-1-yl)-2,4-dimethylnicotinic acid] in this work. An IC50 of 500 to 10000 nM was found for `CC1(C)CN(c2ccc(Cl)c(F)c2)c2ccc(C(=O)N3CCC4(CC3)CNC(=O)O4)nc21` [Example 121, 8-(1-(4-chloro-3-fluorophenyl)-3,3-dimethyl-2,3-dihydro-1H-pyrrolo[3,2-b]pyridine-5-carbonyl)-1-oxa-3,8-diazaspiro[4.5]decan-2-one] in this work. An IC50 of under 500 nM was found for `CC1(C)CN(c2ccc(Cl)c(F)c2)c2ccc(C(=O)N3CCN(c4ccc(CC(=O)O)cn4)CC3(C)C)nc21` [Example 65, 2-(6-(4-(1-(4-chloro-3-fluorophenyl)-3,3-dimethyl-2,3-dihydro-1H-pyrrolo[3,2-b]pyridine-5-carbonyl)-3,3-dimethylpiperazin-1-yl)pyridin-3-yl)acetic acid] in this work. An IC50 of under 500 nM was found for `Cc1cc(N2CCN(C(=O)c3ccc4c(n3)C3(CCOC3)CN4c3ccc(Cl)c(F)c3)C(C)(C)C2)nc(C)c1C(=O)O` (stereo not shown) [Example 60, 6-(4-(1′-(4-chloro-3-fluorophenyl)-1′,2′,4,5-tetrahydro-2H-spiro[furan-3,3′-pyrrolo[3,2-b]pyridine]-5′-carbonyl)-3,3-dimethylpiperazin-1-yl)-2,4-dimethylnicotinic acid hydrochloride] in this work. An IC50 of under 500 nM was found for `Cc1ccc(N2CC(C)(C)c3nc(C(=O)N4CCN(c5ccc(CC(=O)O)cn5)CC4(C)C)cnc32)cc1F` [Example 203, 2-(6-(4-(5-(3-fluoro-4-methylphenyl)-7,7-dimethyl-6,7-dihydro-5H-pyrrolo[2,3-b]pyrazine-2-carbonyl)-3,3-dimethylpiperazin-1-yl)pyridin-3-yl)acetic acid] in this work. An IC50 of 500 to 10000 nM was found for `O=C(O)CC1CCN(C(=O)c2ccc3c(n2)C2(CCC2)CN3c2ccc(Cl)c(F)c2)CC1` [Example 125, 2-(1-(1′-(4-chloro-3-fluorophenyl)-1′,2′-dihydrospiro[cyclobutane-1,3′-pyrrolo[3,2-b]pyridine]-5′-carbonyl)piperidin-4-yl)acetic acid] in this work. An IC50 of under 500 nM was found for `CC1(C)CN(c2ccc(Cl)c(F)c2)c2ccc(C(=O)N3CCN(c4ccc(C(C)(C)C(=O)O)cn4)CC3(C)C)nc21` [Example 175, 2-(6-(4-(1-(4-chloro-3-fluorophenyl)-3,3-dimethyl-2,3-dihydro-1H-pyrrolo[3,2-b]pyridine-5-carbonyl)-3,3-dimethylpiperazin-1-yl)pyridin-3-yl)-2-methylpropanoic acid] in this work. An IC50 of over 10000 nM was found for `CC1(C)CN(c2ccc(Cl)c(F)c2)c2ccc(C(=O)N3CC4(C3)CN(c3ccc(C(=O)O)cn3)C4)nc21` [Example 123, 6-(6-(1-(4-chloro-3-fluorophenyl)-3,3-dimethyl-2,3-dihydro-1H-pyrrolo[3,2-b]pyridine-5-carbonyl)-2,6-diazaspiro[3.3]heptan-2-yl)nicotinic acid] in this work. An IC50 of under 500 nM was found for `Cc1cc(N2CCN(C(=O)c3cnc4c(n3)C(C)(C)CN4c3ccc(Cl)c(F)c3)C(C)(C)C2)nc(C)c1C(=O)O` [Example 100, 6-(4-(5-(4-chloro-3-fluorophenyl)-7,7-dimethyl-6,7-dihydro-5H-pyrrolo[2,3-b]pyrazine-2-carbonyl)-3,3-dimethylpiperazin-1-yl)-2,4-dimethylnicotinic acid] in this work. An IC50 of over 10000 nM was found for `CC1(C)CN(c2ccc(C(=O)N3CCN(c4cncc(C(=O)O)c4)CC3(C)C)c(F)c2)c2ccc(C(=O)N3CCN(c4cncc(C(=O)O)c4)CC3(C)C)nc21` [Example 152, 5-(4-(4-(5-(4-(5-carboxypyridin-3-yl)-2,2-dimethylpiperazine-1-carbonyl)-3,3-dimethyl-2,3-dihydro-1H-pyrrolo[3,2-b]pyridin-1-yl)-2-fluorobenzoyl)-3,3-dimethylpiperazin-1-yl)nicotinic acid] in this work. An IC50 of under 500 nM was found for `CC1(C)CN(c2ccc(Cl)c(F)c2)c2ccc(C(=O)N3CCN(c4ccc(CC(=O)O)nc4)CC3(C)C)nc21` [Example 117, 2-(5-(4-(1-(4-chloro-3-fluorophenyl)-3,3-dimethyl-2,3-dihydro-1H-pyrrolo[3,2-b]pyridine-5-carbonyl)-3,3-dimethylpiperazin-1-yl)pyridin-2-yl)acetic acid] in this work. An IC50 of under 500 nM was found for `CC1(C)CN(c2ccc(F)c(F)c2)c2ccc(C(=O)N3CCNC(=O)C3(C)C)nc21` [Example 12, 4-(1-(3,4-difluorophenyl)-3,3-dimethyl-2,3-dihydro-1H-pyrrolo[3,2-b]pyridine-5-carbonyl)-3,3-dimethylpiperazin-2-one] in this work. An IC50 of under 500 nM was found for `Cc1cc(N2CCN(C(=O)c3cnc4c(n3)C3(CCCC3)CN4c3ccc(Cl)c(F)c3)C(C)(C)C2)nc(C)c1C(=O)O` [Example 207, 6-(4-(5′-(4-chloro-3-fluorophenyl)-5′,6′-dihydrospiro[cyclopentane-1,7′-pyrrolo[2,3-b]pyrazine]-2′-carbonyl)-3,3-dimethylpiperazin-1-yl)-2,4-dimethylnicotinic acid] in this work. An IC50 of under 500 nM was found for `CO[C@H]1CCC2(C1)CN(c1ccc(Cl)c(F)c1)c1ccc(C(=O)N3CCN(c4cc(C)c(C(=O)O)c(C)n4)CC3(C)C)nc12` (stereo partly drawn) [Example 146, 6-(4-((3S)-1′-(4-chloro-3-fluorophenyl)-3-methoxy-1′,2′-dihydrospiro[cyclopentane-1,3′-pyrrolo[3,2-b]pyridine]-5′-carbonyl)-3,3-dimethylpiperazin-1-yl)-2,4-dimethylnicotinic acid] in this work. An IC50 of over 10000 nM was found for `COc1cc2c(nc1C(=O)N1CCN(c3ccc(CC(=O)O)cn3)CC1(C)C)C(C)(C)CN2c1ccc(Cl)c(F)c1` [Example 255, 2-(6-(4-(1-(4-chloro-3-fluorophenyl)-6-methoxy-3,3-dimethyl-2,3-dihydro-1H-pyrrolo[3,2-b]pyridine-5-carbonyl)-3,3-dimethylpiperazin-1-yl)pyridin-3-yl)acetic acid] in this work.
